Measured values taken from publication PMC5290327, “SC83288 is a clinical development candidate for the treatment of severe malaria” (Nature Communications, 2017).

Experiments:
Assay in all cases: KINOMEscan
Type in all cases: binding
Details in all cases: read-out: Remaining enzyme activity
DCAMKL2 = target: T1, DCAMKL2 (Homo sapiens, UniProt Q8N568)
T1 construct: purchased Ambit (DiscoverX) KINOMEscan; Cerep
Outline: (§1)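 qPCR of a DNA tag reports how much kinase stays bound to ligand-coated beads in the presence of 10 μM SC81458, diluted from a DMSO stock. Kinase sources were T7 phage lysates from E. coli or HEK-293-expressed protein tagged with DNA.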

ASK2 = target: T2, ASK2 (Homo sapiens, UniProt O95382)
T2 construct: purchased Ambit (DiscoverX) KINOMEscan; Cerep
Outline: as §1

CLK4 = target: T3, CLK4 (Homo sapiens, UniProt Q9HAZ1)
T3 construct: purchased Ambit (DiscoverX) KINOMEscan; Cerep
T3 sequence (Q9HAZ1 whole entry): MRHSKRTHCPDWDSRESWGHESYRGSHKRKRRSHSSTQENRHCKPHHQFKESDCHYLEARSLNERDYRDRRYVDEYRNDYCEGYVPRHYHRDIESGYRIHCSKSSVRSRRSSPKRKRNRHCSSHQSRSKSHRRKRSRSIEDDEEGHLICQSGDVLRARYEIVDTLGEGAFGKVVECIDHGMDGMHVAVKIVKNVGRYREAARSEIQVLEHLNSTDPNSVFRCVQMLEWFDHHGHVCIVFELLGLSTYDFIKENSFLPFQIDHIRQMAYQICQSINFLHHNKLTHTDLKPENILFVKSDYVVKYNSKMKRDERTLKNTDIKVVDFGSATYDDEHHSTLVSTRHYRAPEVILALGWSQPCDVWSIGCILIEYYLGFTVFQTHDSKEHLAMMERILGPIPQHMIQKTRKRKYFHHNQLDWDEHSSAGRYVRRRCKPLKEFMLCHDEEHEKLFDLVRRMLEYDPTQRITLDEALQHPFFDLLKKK
Outline: as §1

CAMK1g = target: T4, CAMK1g (Homo sapiens, UniProt Q96NX5)
T4 construct: purchased Ambit (DiscoverX) KINOMEscan; Cerep
Outline: as §1

TSSK1B = target: T5, TSSK1B (Homo sapiens, UniProt Q9BXA7)
T5 construct: purchased Ambit (DiscoverX) KINOMEscan; Cerep
Outline: as §1

JNK2 = target: T6, JNK2 (Homo sapiens, UniProt P45984)
T6 construct: purchased Ambit (DiscoverX) KINOMEscan; Cerep
T6 sequence (P45984 whole entry): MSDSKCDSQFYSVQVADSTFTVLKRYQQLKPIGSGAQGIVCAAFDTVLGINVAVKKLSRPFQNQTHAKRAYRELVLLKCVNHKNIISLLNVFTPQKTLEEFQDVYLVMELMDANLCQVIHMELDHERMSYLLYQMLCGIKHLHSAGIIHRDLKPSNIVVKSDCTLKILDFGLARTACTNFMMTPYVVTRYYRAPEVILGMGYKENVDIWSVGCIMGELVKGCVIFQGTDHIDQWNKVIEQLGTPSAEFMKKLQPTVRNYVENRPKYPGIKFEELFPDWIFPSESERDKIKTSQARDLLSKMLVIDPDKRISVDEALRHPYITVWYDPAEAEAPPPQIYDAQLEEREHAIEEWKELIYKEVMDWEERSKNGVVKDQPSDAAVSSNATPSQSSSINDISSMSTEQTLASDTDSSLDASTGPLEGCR
Outline: as §1

TNNI3K = target: T7, TNNI3K (Homo sapiens, UniProt Q59H18)
T7 construct: purchased Ambit (DiscoverX) KINOMEscan; Cerep
Outline: as §1

ULK2 = target: T8, ULK2 (Homo sapiens, UniProt Q8IYT8)
T8 construct: purchased Ambit (DiscoverX) KINOMEscan; Cerep
Outline: as §1

LOK = target: T9, LOK (Homo sapiens, UniProt O94804)
T9 construct: purchased Ambit (DiscoverX) KINOMEscan; Cerep
Outline: as §1

MET(M1250T) = target: T10, MET(M1250T) (Homo sapiens, UniProt P08581, M1250T)
T10 construct: purchased Ambit (DiscoverX) KINOMEscan; Cerep
Outline: as §1

ACVR1 = target: T11, ACVR1 (Homo sapiens, UniProt Q04771)
T11 construct: purchased Ambit (DiscoverX) KINOMEscan; Cerep
T11 sequence (Q04771 21-509): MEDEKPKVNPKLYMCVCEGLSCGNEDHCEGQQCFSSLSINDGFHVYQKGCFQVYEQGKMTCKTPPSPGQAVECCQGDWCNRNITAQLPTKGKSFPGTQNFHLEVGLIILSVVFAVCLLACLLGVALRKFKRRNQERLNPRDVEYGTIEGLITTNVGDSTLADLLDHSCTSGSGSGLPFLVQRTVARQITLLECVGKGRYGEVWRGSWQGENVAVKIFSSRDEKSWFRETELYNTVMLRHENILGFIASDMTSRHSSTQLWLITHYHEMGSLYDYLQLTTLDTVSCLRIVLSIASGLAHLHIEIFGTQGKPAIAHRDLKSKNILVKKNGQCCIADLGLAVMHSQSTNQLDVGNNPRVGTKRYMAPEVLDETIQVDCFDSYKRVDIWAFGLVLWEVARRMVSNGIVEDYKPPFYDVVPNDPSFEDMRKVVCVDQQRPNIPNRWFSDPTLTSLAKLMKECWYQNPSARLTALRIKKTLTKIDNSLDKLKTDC
Outline: as §1

HIPK2 = target: T12, HIPK2 (Homo sapiens, UniProt Q9H2X6)
T12 construct: purchased Ambit (DiscoverX) KINOMEscan; Cerep
Outline: as §1

ULK3 = target: T13, ULK3 (Homo sapiens, UniProt Q6PHR2)
T13 construct: purchased Ambit (DiscoverX) KINOMEscan; Cerep
Outline: as §1

MAP4K4 = target: T14, MAP4K4 (Homo sapiens, UniProt O95819)
T14 construct: purchased Ambit (DiscoverX) KINOMEscan; Cerep
Outline: as §1

TYRO3 = target: T15, TYRO3 (Homo sapiens, UniProt Q06418)
T15 construct: purchased Ambit (DiscoverX) KINOMEscan; Cerep
Outline: as §1

SYK = target: T16, SYK (Homo sapiens, UniProt P43405)
T16 construct: purchased Ambit (DiscoverX) KINOMEscan; Cerep
Outline: as §1

[1] = target: T17, JAK1(JH2domain-pseudokinase) (Homo sapiens, UniProt P23458)
T17 construct: JAK1(JH2domain-pseudokinase); purchased Ambit (DiscoverX) KINOMEscan; Cerep
Outline: as §1

FLT3(K663Q) = target: T18, FLT3(K663Q) (Homo sapiens, UniProt P36888, K663Q)
T18 construct: purchased Ambit (DiscoverX) KINOMEscan; Cerep
Outline: as §1

TGFBR2 = target: T19, TGFBR2 (Homo sapiens, UniProt P37173)
T19 construct: purchased Ambit (DiscoverX) KINOMEscan; Cerep
Outline: as §1

MYLK = target: T20, MYLK (Homo sapiens, UniProt Q15746)
T20 construct: purchased Ambit (DiscoverX) KINOMEscan; Cerep
Outline: as §1

MRCKA = target: T21, MRCKA (Homo sapiens, UniProt Q5VT25)
T21 construct: purchased Ambit (DiscoverX) KINOMEscan; Cerep
Outline: as §1

RET(V804M) = target: T22, RET(V804M) (Homo sapiens, UniProt P07949, V804M)
T22 construct: purchased Ambit (DiscoverX) KINOMEscan; Cerep
T22 sequence (P07949 29-1114 V804M): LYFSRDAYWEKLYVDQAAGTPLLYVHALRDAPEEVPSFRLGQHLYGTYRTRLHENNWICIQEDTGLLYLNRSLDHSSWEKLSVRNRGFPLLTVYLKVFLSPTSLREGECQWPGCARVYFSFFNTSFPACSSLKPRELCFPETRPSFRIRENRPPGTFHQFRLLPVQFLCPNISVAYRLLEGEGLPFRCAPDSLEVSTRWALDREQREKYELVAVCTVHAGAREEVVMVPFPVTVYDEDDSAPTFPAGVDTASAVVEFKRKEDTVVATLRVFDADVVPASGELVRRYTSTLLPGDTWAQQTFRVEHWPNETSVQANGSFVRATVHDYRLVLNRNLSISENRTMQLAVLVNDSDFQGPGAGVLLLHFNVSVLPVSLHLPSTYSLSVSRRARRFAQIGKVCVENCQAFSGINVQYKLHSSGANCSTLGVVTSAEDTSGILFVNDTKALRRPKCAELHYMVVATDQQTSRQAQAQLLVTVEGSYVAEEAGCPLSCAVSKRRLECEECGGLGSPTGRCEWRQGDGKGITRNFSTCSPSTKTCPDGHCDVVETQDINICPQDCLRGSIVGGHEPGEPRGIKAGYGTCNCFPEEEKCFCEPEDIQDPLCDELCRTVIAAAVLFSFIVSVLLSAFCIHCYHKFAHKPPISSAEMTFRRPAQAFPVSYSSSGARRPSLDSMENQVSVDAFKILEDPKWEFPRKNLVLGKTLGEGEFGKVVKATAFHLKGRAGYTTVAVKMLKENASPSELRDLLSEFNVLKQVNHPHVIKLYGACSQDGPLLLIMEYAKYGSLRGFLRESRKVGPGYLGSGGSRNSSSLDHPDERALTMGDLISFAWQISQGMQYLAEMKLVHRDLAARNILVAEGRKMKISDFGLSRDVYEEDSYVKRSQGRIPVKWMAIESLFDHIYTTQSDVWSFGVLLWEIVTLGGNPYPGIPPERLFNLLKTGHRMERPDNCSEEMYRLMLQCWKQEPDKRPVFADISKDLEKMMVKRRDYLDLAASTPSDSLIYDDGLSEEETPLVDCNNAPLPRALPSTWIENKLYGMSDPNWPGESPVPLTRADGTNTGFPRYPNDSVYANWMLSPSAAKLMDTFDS
Outline: as §1

CSNK1a1l = target: T23, CSNK1a1l (Homo sapiens, UniProt Q8N752)
T23 construct: purchased Ambit (DiscoverX) KINOMEscan; Cerep
Outline: as §1

FLT3(N841I) = target: T24, FLT3(N841I) (Homo sapiens, UniProt P36888, N841I)
T24 construct: purchased Ambit (DiscoverX) KINOMEscan; Cerep
Outline: as §1

MLK3 = target: T25, MLK3 (Homo sapiens, UniProt Q16584)
T25 construct: purchased Ambit (DiscoverX) KINOMEscan; Cerep
T25 sequence (Q16584 whole entry): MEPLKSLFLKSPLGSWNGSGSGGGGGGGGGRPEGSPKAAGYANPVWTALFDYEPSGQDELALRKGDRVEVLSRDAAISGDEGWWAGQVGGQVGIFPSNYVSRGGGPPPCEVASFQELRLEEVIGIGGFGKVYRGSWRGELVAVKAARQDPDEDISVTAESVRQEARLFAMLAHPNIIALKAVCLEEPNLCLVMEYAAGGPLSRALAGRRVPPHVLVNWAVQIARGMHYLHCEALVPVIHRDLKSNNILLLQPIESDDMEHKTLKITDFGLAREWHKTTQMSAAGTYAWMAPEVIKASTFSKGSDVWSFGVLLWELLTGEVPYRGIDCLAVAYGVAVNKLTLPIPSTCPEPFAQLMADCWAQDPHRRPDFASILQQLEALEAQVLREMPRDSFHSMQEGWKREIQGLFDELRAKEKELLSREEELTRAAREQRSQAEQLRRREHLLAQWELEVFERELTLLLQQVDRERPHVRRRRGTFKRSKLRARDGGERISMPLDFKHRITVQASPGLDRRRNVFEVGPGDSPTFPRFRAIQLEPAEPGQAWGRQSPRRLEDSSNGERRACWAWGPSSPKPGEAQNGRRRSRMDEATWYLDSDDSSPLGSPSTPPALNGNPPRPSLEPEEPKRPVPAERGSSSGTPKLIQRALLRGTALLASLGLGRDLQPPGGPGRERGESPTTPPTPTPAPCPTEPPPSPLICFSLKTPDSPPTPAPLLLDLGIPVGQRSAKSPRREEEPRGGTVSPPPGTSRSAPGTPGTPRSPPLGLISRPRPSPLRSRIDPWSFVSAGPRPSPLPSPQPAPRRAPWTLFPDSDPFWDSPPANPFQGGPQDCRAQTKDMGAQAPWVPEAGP
Outline: as §1

NEK1 = target: T26, NEK1 (Homo sapiens, UniProt Q96PY6)
T26 construct: purchased Ambit (DiscoverX) KINOMEscan; Cerep
Outline: as §1

EPHA4 = target: T27, EPHA4 (Homo sapiens, UniProt P54764)
T27 construct: purchased Ambit (DiscoverX) KINOMEscan; Cerep
T27 sequence (P54764 20-986): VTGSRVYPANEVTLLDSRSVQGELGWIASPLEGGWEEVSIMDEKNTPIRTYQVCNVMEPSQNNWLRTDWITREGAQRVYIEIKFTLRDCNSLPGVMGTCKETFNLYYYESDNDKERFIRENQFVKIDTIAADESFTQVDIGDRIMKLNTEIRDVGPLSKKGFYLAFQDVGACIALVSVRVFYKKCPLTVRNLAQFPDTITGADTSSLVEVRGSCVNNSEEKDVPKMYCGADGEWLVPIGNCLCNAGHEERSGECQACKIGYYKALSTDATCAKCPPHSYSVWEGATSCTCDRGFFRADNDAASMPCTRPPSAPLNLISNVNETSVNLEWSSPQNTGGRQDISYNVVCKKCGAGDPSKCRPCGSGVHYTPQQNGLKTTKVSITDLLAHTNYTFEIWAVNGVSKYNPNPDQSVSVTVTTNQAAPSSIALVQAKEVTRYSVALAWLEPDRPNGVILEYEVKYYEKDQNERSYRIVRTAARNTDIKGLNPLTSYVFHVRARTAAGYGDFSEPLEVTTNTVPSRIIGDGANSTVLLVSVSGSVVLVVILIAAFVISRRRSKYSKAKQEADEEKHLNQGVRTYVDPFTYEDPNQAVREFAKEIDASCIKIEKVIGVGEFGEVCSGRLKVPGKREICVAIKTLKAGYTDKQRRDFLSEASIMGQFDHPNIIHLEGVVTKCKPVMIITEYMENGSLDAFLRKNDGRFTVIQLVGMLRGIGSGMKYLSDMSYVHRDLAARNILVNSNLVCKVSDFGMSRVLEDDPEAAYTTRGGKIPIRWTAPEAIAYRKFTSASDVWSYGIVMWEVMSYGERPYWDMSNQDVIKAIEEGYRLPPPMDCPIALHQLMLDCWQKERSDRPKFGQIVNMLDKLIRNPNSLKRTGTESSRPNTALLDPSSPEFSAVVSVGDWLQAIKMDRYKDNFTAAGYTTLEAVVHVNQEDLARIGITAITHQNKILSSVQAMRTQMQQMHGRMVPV
Outline: as §1

YSK4 = target: T28, YSK4 (Homo sapiens, UniProt Q56UN5)
T28 construct: purchased Ambit (DiscoverX) KINOMEscan; Cerep
Outline: as §1

MET(Y1235D) = target: T29, MET(Y1235D) (Homo sapiens, UniProt P08581, Y1235D)
T29 construct: purchased Ambit (DiscoverX) KINOMEscan; Cerep
Outline: as §1

PIK3C2b = target: T30, PIK3C2b (Homo sapiens, UniProt O00750)
T30 construct: purchased Ambit (DiscoverX) KINOMEscan; Cerep
Outline: as §1

ROCK1 = target: T31, ROCK1 (Homo sapiens, UniProt Q13464)
T31 construct: purchased Ambit (DiscoverX) KINOMEscan; Cerep
Outline: as §1

CDKL3 = target: T32, CDKL3 (Homo sapiens, UniProt Q8IVW4)
T32 construct: purchased Ambit (DiscoverX) KINOMEscan; Cerep
Outline: as §1

EPHB4 = target: T33, EPHB4 (Homo sapiens, UniProt P54760)
T33 construct: purchased Ambit (DiscoverX) KINOMEscan; Cerep
Outline: as §1

T1 sequence (Q8N568 whole entry): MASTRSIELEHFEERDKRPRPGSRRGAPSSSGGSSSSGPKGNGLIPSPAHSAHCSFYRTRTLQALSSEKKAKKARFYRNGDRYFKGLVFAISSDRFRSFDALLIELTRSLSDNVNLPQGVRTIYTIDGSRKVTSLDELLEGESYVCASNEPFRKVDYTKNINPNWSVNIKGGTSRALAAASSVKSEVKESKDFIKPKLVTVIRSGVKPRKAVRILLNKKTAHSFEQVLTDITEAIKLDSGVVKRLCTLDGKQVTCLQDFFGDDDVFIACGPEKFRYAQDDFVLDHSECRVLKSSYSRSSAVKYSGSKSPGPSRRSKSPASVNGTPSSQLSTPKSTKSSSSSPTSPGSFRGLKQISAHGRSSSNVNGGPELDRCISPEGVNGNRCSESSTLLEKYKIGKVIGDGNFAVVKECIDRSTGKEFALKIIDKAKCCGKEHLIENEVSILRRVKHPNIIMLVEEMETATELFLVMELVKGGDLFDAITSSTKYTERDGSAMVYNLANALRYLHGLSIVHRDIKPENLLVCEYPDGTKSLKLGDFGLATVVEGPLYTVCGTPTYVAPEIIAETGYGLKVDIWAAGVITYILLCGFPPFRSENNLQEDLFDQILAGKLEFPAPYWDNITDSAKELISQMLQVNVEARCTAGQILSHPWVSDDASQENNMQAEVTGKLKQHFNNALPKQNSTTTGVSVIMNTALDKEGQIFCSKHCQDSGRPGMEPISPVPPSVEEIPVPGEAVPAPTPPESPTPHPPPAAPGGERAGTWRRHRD

## CCCCN1CCN(C(=N)c2cccc(NC(=O)Nc3ccc(S(=O)(=O)NCc4ccc(S(N)(=O)=O)cc4)cc3)c2)CC1 [SC81458, 4-(3-(3-((4-butylpiperazin-1-yl)(imino)methyl)phenyl)ureido)-N-(4-sulfamoylbenzyl) benzenesulfonamide]
DCAMKL2
  remaining binding at 10 µM: 100%
ASK2
  remaining binding at 10 µM: 100%
CLK4
  remaining binding at 10 µM: 92%
CAMK1g
  remaining binding at 10 µM: 98%
TSSK1B
  remaining binding at 10 µM: 97%
JNK2
  remaining binding at 10 µM: 97%
TNNI3K
  remaining binding at 10 µM: 100%
ULK2
  remaining binding at 10 µM: 100%
LOK
  remaining binding at 10 µM: 100%
MET(M1250T)
  remaining binding at 10 µM: 100%
ACVR1
  remaining binding at 10 µM: 84%
HIPK2
  remaining binding at 10 µM: 100%
ULK3
  remaining binding at 10 µM: 73%
MAP4K4
  remaining binding at 10 µM: 100%
TYRO3
  remaining binding at 10 µM: 79%
SYK
  remaining binding at 10 µM: 100%
[1]
  remaining binding at 10 µM: 89%
FLT3(K663Q)
  remaining binding at 10 µM: 93%
TGFBR2
  remaining binding at 10 µM: 80%
MYLK
  remaining binding at 10 µM: 95%
MRCKA
  remaining binding at 10 µM: 100%
RET(V804M)
  remaining binding at 10 µM: 100%
CSNK1a1l
  remaining binding at 10 µM: 100%
FLT3(N841I)
  remaining binding at 10 µM: 100%
MLK3
  remaining binding at 10 µM: 100%
NEK1
  remaining binding at 10 µM: 83%
EPHA4
  remaining binding at 10 µM: 98%
YSK4
  remaining binding at 10 µM: 100%
MET(Y1235D)
  remaining binding at 10 µM: 100%
PIK3C2b
  remaining binding at 10 µM: 98%
ROCK1
  remaining binding at 10 µM: 100%
CDKL3
  remaining binding at 10 µM: 98%
EPHB4
  remaining binding at 10 µM: 100%
